Laboratory results reported in US5140025A, “Thienotricylene for the treatment of bronchial diseases” (BYK Gulden Lomberg Chemische Fabrik GmbH, priority 1987, dated 1992).

Legend:
[1] = tested on: acetylcholine-induced bronchospasm; assay: Acetylcholine-induced bronchospasm in anaesthetised, spontaneously breathing guinea pigs, intravenous administration; type: in vivo, guinea pig (Pirbright White); conditions: for Mean bronchospasmolytic activity, percentage increase of Vmaxe vs control spasm / Mean bronchospasmolytic activity, percentage increase of tidal volume (TV) vs control spasm: 0-60 min; for Mean bronchospasmolytic activity, percentage increase of Vmaxe vs control spasm / Mean bronchospasmolytic activity, percentage increase of tidal volume (TV) vs control spasm / Bronchospasmolytic activity, percentage increase of Vmaxe vs control spasm / Bronchospasmolytic activity, percentage increase of tidal volume (TV) vs control spasm: x±SEM, N=10; for Bronchospasmolytic activity, percentage increase of Vmaxe vs control spasm / Bronchospasmolytic activity, percentage increase of tidal volume (TV) vs control spasm: at 60 min
Source text: Effect of Intravenously Administered Telenzepine on Acetylchline-Induced Bronchospasms in Anaesthetised, Spontaneously Breathing Guinea Pigs
Method for simultaneously recording pharmacodynamic or toxic effects on interior sensitive receptors and the respiration of guinea pigs (U. Kilian, E. Muller, E. Ch. Dittmann and J. Hamacher, Arzneim.-Forsch. 28, 1699-1708, 1978).
Pirbright White, Interfauna (Tuttlingen), 350-450 g, male.
Ethylurethane 1.2 g/kg i.p. as 12.5% aqueous solution.
Pneumotachogram: Maximum flow velocities of the respiratory air during expiration (Vmaxe, "peak flow"), tidal volume (TV).
Acetylcholine as spasmogen, 0.2-0.3 μmol/kg i.v., dissolved in 0.9% NaCl.
-10 min control spasm, 0 min administration of substance, +2, +10, +20, +30, +60 min test spasms.
Determination of the effect of telenzepine on the parameters (mean and standard error of mean, n=10) and calculation of the bronchospasmolytic activity from this as percentage inhibition of the acetylcholine-induced decrease of Vmaxe and TV by means of time/effect curves. Computation of a dose/response curve of the mean bronchospasmolytic activity during the observation time (0-60 min) from the areas under the time/effect curves and reading of 1 h ED50 values. Determination of a dose/response curve of the bronchospasmolytic activity at time 60 min and reading ED50 values.

[2] = molecular target: M1 receptor (ganglionic); assay: Receptor affinity, electrically stimulated rabbit vas deferens in organ bath; conditions: vas deferens of the rabbit, agonist McN-A-343, Schild slope normalised to 1.00; listed as Compound 1
Protocol: Isometric contractions (HSE force transducer, K-30; tilt and zones, BD-9 chart recorder) of isolated seminal duct sections of rabbits (male, white New Zealand rabbits, 2.5-3.5 kg) were recorded in an organ bath (10 ml, 31° C., gassing with carbogen, initial tension of the organs 0.75 g) under electrical stimultion (HSE stimulator; hook-shaped Pt electrode 1 cm below the water surface of the bath; 30 V, 0.5 ms, 0.05 Hz). After an equilibration time of 30 minutes, cumulative dose/response curves of McN-A-343 (10^-7 -2×10^-6 M) were recorded simultaneously on 8 organ sections in each case (control curves), using the technique described by van Rossum (1963). After 3 control curves, a fixed concentration of the agonist (for example 5×10^-7, 10^-6, 3×10^-6, 10^-5 or 3×10^-5 M) per organ section was applied and, after stabilisation of the effect, increasing concentrations of the agonist to be tested were added. The nutrient solution used had the following composition (mM): NaCl 118, KCl 4.7, CaCl2 ·2H2 O 2.5, MgSO4 ·7H2 O 0.6, KH2 PO 4 1.2, NaHCO3 25.0 and glucose 11.1. In order to block α2 -adrenoreceptors, the nutrient solution additionally contained 10^-6 M yohimbine.

[3] = molecular target: T1, M2 receptor (cardiac) (Rattus norvegicus, UniProt P10980); assay: Receptor affinity, electrically stimulated left atrium of the rat; conditions: agonist carbachol, Schild slope normalised to 1.00, read-out: pA2 ± SEM, M2 receptor (cardiac) (converted)
T1 construct: isolated, left atria of rats (male 250-350 g); from tissue; host or cells: rat left atrium (isolated, male rats 250-350 g)
T1 sequence (P10980 1-466): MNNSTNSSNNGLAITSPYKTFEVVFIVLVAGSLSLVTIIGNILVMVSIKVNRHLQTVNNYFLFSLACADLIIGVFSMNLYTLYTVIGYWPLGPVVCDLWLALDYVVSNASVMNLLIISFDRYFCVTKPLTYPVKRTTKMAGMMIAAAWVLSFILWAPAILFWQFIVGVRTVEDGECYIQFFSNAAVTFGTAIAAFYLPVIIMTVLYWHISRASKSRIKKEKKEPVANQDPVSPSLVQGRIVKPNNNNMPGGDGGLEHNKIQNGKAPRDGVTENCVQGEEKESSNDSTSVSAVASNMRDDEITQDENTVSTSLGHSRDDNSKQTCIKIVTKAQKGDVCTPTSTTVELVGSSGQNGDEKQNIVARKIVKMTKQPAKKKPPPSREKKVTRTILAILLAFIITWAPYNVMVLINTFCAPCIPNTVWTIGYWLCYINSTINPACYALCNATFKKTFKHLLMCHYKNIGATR
Source text: The affinity of (±)-4,9-dihydro-3-methyl-4-[(4-methyl-1-piperazinyl)-acetyl]-10H-thieno[3,4-b][1,5]benzodiazepin-10-one (telenzepine, compound 2 in Table 7) and its conformers [(+)-enantiomer=compound 1, (-)-enantiomer=compound 3] to muscarinic M1 (ganglionic type) and M2 (cardiac type) receptors was investigated by the following methods:
Electrically Stimulated Left Atrium of the Rat (Eltze et al., 1985, Europ. J. Pharmacol. 112, 211-224).
Isometric contractions (HSE force transducer, K-30; Watanabe Linear Corder Mark 5) of isolated, left atria of rats (male 250-350 g) were recorded in an organ bath (10 ml, Tyrode nutrient solution, 31° C., gassing with carbogen, initial tension of the organs 0.25 g) under electrical stimulation (HSE stimulator; hook-shaped Pt electrodes at the base of the bath and immersed, annular Pt electrodes 1 cm below the water surface of the bath; 7 V, 3 ms, 2 Hz). After an equilibration time of 30 minutes, cumulative dose/response curves of carbachol (10^-8 -10^-6 M, in the presence of the antagonist also up to 10^-5 or 10^-4 M) were recorded simultaneously on 4 organs in each case by the technique described by van Rossum (1963). The substance to be tested was added to the organ baths 20 minutes before application of the carbachol. The pauses between the individual dose/response curves were 30-45 minutes.
The Tyrode nutrient solution used had the following composition (mM): NaCl 130, KCl 2.0, CaCl2 ·2H2 O 1.8, MgCl2 ·6H2 O 0.98, NaHCO3 12.0, NaH2 PO4 0.42 and glucose monohydrate 5.6. pA2 values (-log of the molar dissociation constants of the competitive antagonist-receptor complex) were determined by linear regression using the Schild plot: pA2 =-log [B/(x-1)], (Arunlakshana and Schild, 1959).
Table 7 below gives pA2 values of the substances, for which the slope of the regression lines for theoretically competitive antagonism have been normalised to 1.00 (Tallarida et al., 1979).

[4] = tested on: modified Shay rat (lesion formation and acid secretion); assay: Antiulcerogenic and secretion-inhibiting action on the modified Shay rat; type: in vivo
Source text: The excellent gastric protective action and the gastric secretion-inhibiting action of the compound (+)-4,9-dihydro-3-methyl-4-[(4-methyl-1-piperazinyl)-acetyl]-10H-thieno[3,4-b][1,5]benzodiazepin-10-one (=compound 1 in Table 8 below) in comparison with the corresponding (-)-enantiomer (=compound 3) and with the racemate (=compound 2) can be detected in studies on the modified Shay rat. The effect of the stated compounds after intravenous (i.v.) administration on the formation of lesions and the acid secretion in the modified Shay rat is shown in Table 8 below.
Ulcers are provoked in rats (female, 180-200 g, 4 animals per cage on high grids) which have fasted for 24 hours, by pylorus ligature (under diethyl ether anaesthesia) and oral administration of 100 mg/10 ml/kg of acetylsalicylic acid. The substances to be tested are administered intravenously (1 ml/kg) directly after the pylorus ligature. The wound is closed by means of Michel clamps. 4 hours afterwards, the animals are sacrificed under anaesthesia with ether by Atlas dislocation, and resection of the stomach.
The stomach is opened along the greater curvature and clamped to a cork sheet, the amount of secreted gastric juice (volume) is determined first and its HCl content (titration with sodium hydroxide solution) being determined subsequently. The number and size (=diameter) of ulcers present are determined using a stereomicroscope, under 10×magnification. The product of severity (according to the following point scale) and number of ulcers serves as an individual lesion index.
The reduction in the means lesion index of each treated group compared with the control group (=100%) serves as a measure of the antiulcerogenic effect. The ED50 is the dose which reduces the mean lesion index or the HCl secretion by 50% compared with the control.

[5] = at time 60 min after administration, 60 min
[6] = modified Shay rat, i.v., interpolated dose, 4 h, N=24, listed as 1, 240 min

pA2 ± SEM, M1 receptor (ganglionic) [2]: 9.12 ± 0.08
Kb [3]: 0.0214 µM
Compound: Cc1scc2c1N(C(=O)CN1CCN(C)CC1)c1ccccc1NC2=O [(+)-telenzepine, (+)-4,9-dihydro-3-methyl-4-[(4-methyl-1-piperazinyl)-acetyl]-10H-thieno[3,4-b][1,5]benzodiazepin-10-one]
Mean bronchospasmolytic activity, percentage increase of Vmaxe vs control spasm ([1]; 0.03 μmol/kg i.v.): 13 ± 4%
Mean bronchospasmolytic activity, percentage increase of tidal volume (TV) vs control spasm ([1]; 0.03 μmol/kg i.v.): 17 ± 4%
Mean bronchospasmolytic activity, percentage increase of Vmaxe vs control spasm ([1]; 0.05 μmol/kg i.v.): 21 ± 4%
Mean bronchospasmolytic activity, percentage increase of tidal volume (TV) vs control spasm ([1]; 0.05 μmol/kg i.v.): 25 ± 5%
Mean bronchospasmolytic activity, percentage increase of Vmaxe vs control spasm ([1]; 0.1 μmol/kg i.v.): 57 ± 5%
Mean bronchospasmolytic activity, percentage increase of tidal volume (TV) vs control spasm ([1]; 0.1 μmol/kg i.v.): 62 ± 5%
Mean bronchospasmolytic activity, percentage increase of Vmaxe vs control spasm ([1]; 0.5 μmol/kg i.v.): 87 ± 3%
Mean bronchospasmolytic activity, percentage increase of tidal volume (TV) vs control spasm ([1]; 0.5 μmol/kg i.v.): 92 ± 3%
Mean bronchospasmolytic activity, percentage increase of Vmaxe vs control spasm ([1]; 1 μmol/kg i.v.): 82 ± 3%
Mean bronchospasmolytic activity, percentage increase of tidal volume (TV) vs control spasm ([1]; 1 μmol/kg i.v.): 85 ± 3%
Bronchospasmolytic activity, percentage increase of Vmaxe vs control spasm ([1]; 0.03 μmol/kg i.v.): 19 ± 6%
Bronchospasmolytic activity, percentage increase of tidal volume (TV) vs control spasm ([1]; 0.03 μmol/kg i.v.): 23 ± 7%
Bronchospasmolytic activity, percentage increase of Vmaxe vs control spasm ([1]; 0.05 μmol/kg i.v.): 35 ± 7%
Bronchospasmolytic activity, percentage increase of tidal volume (TV) vs control spasm ([1]; 0.05 μmol/kg i.v.): 39 ± 7%
Bronchospasmolytic activity, percentage increase of Vmaxe vs control spasm ([1]; 0.1 μmol/kg i.v.): 61 ± 6%
Bronchospasmolytic activity, percentage increase of tidal volume (TV) vs control spasm ([1]; 0.1 μmol/kg i.v.): 64 ± 7%
Bronchospasmolytic activity, percentage increase of Vmaxe vs control spasm ([1]; 0.5 μmol/kg i.v.): 95 ± 4%
Bronchospasmolytic activity, percentage increase of tidal volume (TV) vs control spasm ([1]; 0.5 μmol/kg i.v.): 100 ± 4%
Bronchospasmolytic activity, percentage increase of Vmaxe vs control spasm ([1]; 1 μmol/kg i.v.): 88 ± 4%
Bronchospasmolytic activity, percentage increase of tidal volume (TV) vs control spasm ([1]; 1 μmol/kg i.v.): 88 ± 4%
ED50 of bronchospasmolytic activity, TV [1, 5]: 0.07 μmol/kg i.v.
ED50 of bronchospasmolytic activity, Vmaxe [1, 5]: 0.07 μmol/kg i.v.
dose range of dose- and time-dependent inhibition of acetylcholine-induced bronchospasm ([1]; i.v.): 0.03-1 μmol/kg i.v.
persistence of maximum effect ([1]; i.v., observation period): ≥ 1 h
ED50 of mean bronchospasmolytic activity, TV ([1]; mean activity 0-60 min, 60 min): 0.08 μmol/kg i.v.
ED50 of mean bronchospasmolytic activity, Vmaxe ([1]; mean activity 0-60 min, 60 min): 0.1 μmol/kg i.v.
Gastric protective action, reduction of lesion index, about ED50 [4, 6]: ~0.01 mg/kg i.v.
Inhibition of acid secretion, reduction of HCl secretion, about ED50 [4, 6]: ~0.085 mg/kg i.v.
protective action with respect to stomach and intestine, doses compared with acid secretion-inhibiting doses ([4]; warm-blooded animals): observed with the administration of doses which are below the doses which inhibit acid secretion
